Assay results reported in patent publication US4758557A, “Cephalosporin derivatives and bactericides containing the same” (Meiji Seika Kaisha, Ltd., priority 1985, dated 1988).
Converted amounts (≈) assume the structure as drawn. Read-outs that look alike come from different tables or passages of the source.

How the values were obtained:
Assay in all cases: MIC in agar plate culture-dilution assay
Assay type in all cases: cell-based
[1] = system: Klebsiella pneumoniae GN-69; settings: GN69
Description: (§1) The compounds of the formula (I) and salts thereof of the present invention are new, and have high and broad antibacterial activity capable of inhibiting the growth of pathogenic microorganisms of a broad range including gram-positive and gram-negative bacteria. In order to show the usability of the compounds of the formula (I), the antibacterial activity of some typical compounds of the formula (I) was actually measured, and the results are given in the following Table-1.
(§2) MIC in agar plate culture-dilution assay (Y/ml)

[2] = system: Serratia marcescens No. 1
Description: as §1, §2

Proteus vulgaris GN-76 = settings: GN76
Description: as §1, §2

[3] = system: Bacillus subtilis ATCC 6633; settings: ATCC6633
Description: as §1, §2

[4] = system: Citrobacter freundii GN-346; settings: GN346
Description: as §1, §2

[5] = system: Pseudomonas aeruginosa IAM-1007; settings: IAM1007
Description: as §1, §2

[6] = system: Pseudomonas maltophilia M-0627; settings: Stenotrophomonas maltophilia, M0627
Description: as §1, §2

[7] = system: Staphylococcus aureus Smith (1)
Description: as §1, §2

Proteus rettgeri GN-624 = settings: Providencia rettgeri, GN624
Description: as §1, §2

[8] = system: Pseudomonas aeruginosa E-2; settings: E2
Description: as §1, §2

[9] = system: Enterobacter cloacae GN-7471; settings: GN7471
Description: as §1, §2

[10] = system: Escherichia coli NIHJ JC-2; settings: NIHJJC2
Description: as §1, §2

[11] = system: Staphylococcus aureus 209P JC-1
Description: as §1, §2

[12] = system: Pseudomonas aeruginosa M-0148; settings: M0148
Description: as §1, §2

[13] = Klebsiella pneumoniae GN-69, agar plate culture-dilution, read-out: MIC
[14] = Serratia marcescens No. 1, agar plate culture-dilution, read-out: MIC
[15] = Proteus vulgaris GN-76, agar plate culture-dilution, read-out: MIC
[16] = Bacillus subtilis ATCC 6633, agar plate culture-dilution, read-out: MIC
[17] = Citrobacter freundii GN-346, agar plate culture-dilution, read-out: MIC
[18] = Pseudomonas aeruginosa IAM-1007, agar plate culture-dilution, read-out: MIC
[19] = Staphylococcus aureus Smith (1), agar plate culture-dilution, read-out: MIC
[20] = Proteus rettgeri GN-624, agar plate culture-dilution, read-out: MIC
[21] = Pseudomonas aeruginosa E-2, agar plate culture-dilution, read-out: MIC
[22] = Enterobacter cloacae GN-7471, agar plate culture-dilution, read-out: MIC
[23] = Staphylococcus aureus 209P JC-1, agar plate culture-dilution, read-out: MIC
[24] = Pseudomonas aeruginosa M-0148, agar plate culture-dilution, read-out: MIC

MIC [1, 13] [µg/mL] | MIC [2, 14] [µg/mL] | MIC (Proteus vulgaris GN-76; [15]) [µg/mL] | MIC [3, 16] [µg/mL] | MIC [4, 17] [µg/mL] | MIC [5, 18] [µg/mL] | MIC [7, 19] [µg/mL] | MIC (Proteus rettgeri GN-624; [20]) [µg/mL] | MIC [8, 21] [µg/mL] | MIC [9, 22] [µg/mL] | MIC [10] [µg/mL] | MIC [11, 23] [µg/mL] | MIC [12, 24] [µg/mL] | Compound | also measured
0.2 (≈ 0.318 µM) | 0.2 (≈ 0.318 µM) | 0.78 (≈ 1.24 µM) | 1.56 (≈ 2.48 µM) | 0.39 (≈ 0.619 µM) | 6.25 (≈ 9.93 µM) | 0.78 (≈ 1.24 µM) | 1.56 (≈ 2.48 µM) | 0.2 (≈ 0.318 µM) | 3.13 (≈ 4.97 µM) | 0.1 (≈ 0.159 µM) | 0.78 (≈ 1.24 µM) | 50 (≈ 79.4 µM) | C[n+]1ccc(SCC2=C(C(=O)[O-])N3C(=O)[C@@H](NC(=O)C(NC(=O)c4cc(=O)c(O)c[nH]4)c4csc(N)n4)[C@H]3SC2)cc1 (stereo partly shown) [A, reference compound] | MIC ([6]; Pseudomonas maltophilia M-0627, agar plate culture-dilution, read-out: MIC): 50 µg/mL (≈ 79.4 µM)
0.1 (≈ 0.155 µM) | 0.2 (≈ 0.31 µM) | 0.39 (≈ 0.604 µM) | 12.5 (≈ 19.4 µM) | 6.25 (≈ 9.68 µM) | 0.2 (≈ 0.31 µM) | 3.13 (≈ 4.85 µM) | 0.2 (≈ 0.31 µM) | 0.1 (≈ 0.155 µM) | 3.13 (≈ 4.85 µM) | 0.1 (≈ 0.155 µM) | 3.13 (≈ 4.85 µM) | 0.39 (≈ 0.604 µM) | C[n+]1cccc(SCC2=C(C(=O)[O-])N3C(=O)[C@@H](NC(=O)C(NC(=O)c4cc(=O)c(O)cn4O)c4csc(N)n4)[C@H]3SC2)c1 (stereo partly drawn) [Example 4, (6R,7R)7-[(RS)2-(2-Aminothiazol-4-yl)-2-(1,5-dihydroxy-4-pyridone-2-carboxamido)acetamido]-3-(1-methylpyridinium-3-yl)thiomethyl-ceph-3-em-4-carboxylate] | 
0.05 (≈ 0.074 µM) | 0.2 (≈ 0.296 µM) | 0.39 (≈ 0.577 µM) | 3.13 (≈ 4.63 µM) | 0.78 (≈ 1.15 µM) | 0.1 (≈ 0.148 µM) | 3.13 (≈ 4.63 µM) | 0.1 (≈ 0.148 µM) | 0.05 (≈ 0.074 µM) | 1.56 (≈ 2.31 µM) | 0.05 (≈ 0.074 µM) | 1.56 (≈ 2.31 µM) | 0.78 (≈ 1.15 µM) | Nc1nc(C(NC(=O)c2cc(=O)c(O)cn2O)C(=O)N[C@@H]2C(=O)N3C(C(=O)[O-])=C(CSc4cc[n+](CCO)cc4)CS[C@H]23)cs1 (stereo partly drawn) [Example 5, (6R,7R)7-[(RS)2-(2-Aminothiazol-4-yl)-2-(1,5-dihydroxy-4-pyridone-2-carboxamido)acetamido]-3-[1-(2-hydoroxyethyl)pyridinium-4-yl]thiomethyl-ceph-3-em-4-carboxylate] | 
0.1 (≈ 0.145 µM) | 0.2 (≈ 0.29 µM) | 0.2 (≈ 0.29 µM) | 3.13 (≈ 4.54 µM) | 1.56 (≈ 2.27 µM) | 0.1 (≈ 0.145 µM) | 3.13 (≈ 4.54 µM) | 0.2 (≈ 0.29 µM) | 0.05 (≈ 0.0726 µM) | 1.56 (≈ 2.27 µM) | 0.05 (≈ 0.0726 µM) | 1.56 (≈ 2.27 µM) | 0.78 (≈ 1.13 µM) | NC(=O)C[n+]1ccc(SCC2=C(C(=O)[O-])N3C(=O)[C@@H](NC(=O)C(NC(=O)c4cc(=O)c(O)cn4O)c4csc(N)n4)[C@H]3SC2)cc1 (stereo partly drawn) [Example 6, (6R,7R)7-[(RS)2-(2-Aminothiazol-4-yl)-2-(1,5-dihydroxy-4-pyridone-2-carboxamido)acetamido]-3-(1-carbamoylmethylpyridinium-4-yl)thiomethyl-ceph-3-em-4-carboxylate] | 

Compound | MIC [1, 13] [µg/mL] | MIC [2, 14] [µg/mL] | MIC (Proteus vulgaris GN-76; [15]) [µg/mL] | MIC [3, 16] [µg/mL] | MIC [4, 17] [µg/mL] | MIC [5, 18] [µg/mL] | MIC [7, 19] [µg/mL] | MIC (Proteus rettgeri GN-624; [20]) [µg/mL] | MIC [8, 21] [µg/mL] | MIC [9, 22] [µg/mL] | MIC [10] [µg/mL] | MIC [11, 23] [µg/mL] | MIC [12, 24] [µg/mL] | also measured
CC(C)(O/N=C(\C(=O)N[C@@H]1C(=O)N2C(C(=O)[O-])=C(C[n+]3ccccc3)CS[C@H]12)c1csc(N)n1)C(=O)O [B, ceftazidime, reference compound] |  |  |  |  |  |  |  |  |  |  | 0.2 (≈ 0.366 µM) |  |  | MIC ([1]; Klebsiella pneumoniae): 0.1 µg/mL (≈ 0.183 µM); MIC ([2]; Serratia marcescens, NO.1): < 0.025 µg/mL; MIC (Proteus vulgaris GN-76; Proteus vulgaris): 0.05 µg/mL (≈ 0.0915 µM); MIC ([3]; Bacillus subtilis): 6.25 µg/mL (≈ 11.4 µM); MIC ([4]; Citrobacter freundii): 0.78 µg/mL (≈ 1.43 µM); MIC ([5]; Pseudomonas aeruginosa): 1.56 µg/mL (≈ 2.85 µM); MIC [6]: 50 µg/mL (≈ 91.5 µM); MIC ([7]; Staphylococcus aureus): 3.13 µg/mL (≈ 5.73 µM); MIC (Proteus rettgeri GN-624): 0.39 µg/mL (≈ 0.714 µM); MIC ([8]; Pseudomonas aeruginosa): 1.56 µg/mL (≈ 2.85 µM); MIC ([9]; Enterobacter cloacae): 3.13 µg/mL (≈ 5.73 µM); MIC ([11]; Staphylococcus aureus, 209P): 3.13 µg/mL (≈ 5.73 µM); MIC ([12]; Pseudomonas aeruginosa): 3.13 µg/mL (≈ 5.73 µM)
